This is an account of results in patent US20180353461A1, “USE OF CANNABINOIDS AS CERAMIDE-GENERATING ANTICANCER AGENTS IN TUMORS OF THE HEMATOPOIETIC AND LYMPHOID TISSUES” (priority 2014, published 2018).

Experiment [1] concerns U266 cells. Kind of experiment: Western blot time course of apoptotic proteins in U266 cells. It is filed as cell-based, human. On the procedure: Protein analyses were performed by Western blot in several sets of assays: expression pattern of CBs-receptors in MM cell lines and primary cells, and time course after treatment with cannabinoids in MM cell lines. Time-course assays were performed at 0, 2, 6, 18 and 24 hours. Anyway, obtaining cell lysates was conducted according to a protocol adapted to phosphorylation-dependent signaling, described by Gilbert et al. (2002). Briefly, 10e7 cells per condition were harvested at indicated times, washed with iced-cold PBS and lysate in isotonic lysis buffer 30 min keeping on ice. Isotonic lysis buffer contained 2% ASB-14 (CalbioChem, San Diego, Calif., USA),1% Nonidet P-40 (Ipegal®), 137 mM NaCl, 20mM Tris-HCl pH 7.5 at 4° C. (all from Sigma-Aldrich), 2 mM Na3VO4, 20 mM NaF (New England BioLabs Inc., Ipswich, Mass., USA), 2 mM DTT (AppliChem, Darmstadt, Germany), protease inhibitor cocktail (Roche Diagnostics GmbH, Mannheim, Germany), and 10 ul Nuclease Mix (Amersham GE Healthcare, Uppsala, Sweden). After lysis, samples were centrifuged at 13,000×g for 5 min at 4° C., and supernatants collected. Protein concentration in samples was determined by Pierce® Microplate BCA Protein Assay kit-Reducing Agent Compatible (Thermo Fisher Scientific). Before loading the samples in the gel, they were diluted in loading sample buffer (0.125 M Tris-HCl pH 6.8, 4% SDS, 20% glycerol, 0.02% Bromophenol Blue, 200 mM DTT) and the mixture was heated at 70° C. for 5 min in a thermoblock (LabNet International, N.J., USA).
Samples (15-25 ug/lane) were subjected to SDS/PAGE in pre-cast polyacrylamide gels AnykD (Bio-Rad Laboratories, Hercules, CA, USA) under reducing and denaturing conditions. Electrophoretic run was performed at a constant current of 15 mA per gel in a Mini-Protean® Tetra Cell (Bio-Rad Laboratories). Once proteins were separated by electrophoresis, were transferred onto PVDF membranes using Trans-Blot® Turbo™ System (Bio-Rad Laboratories). Electrotransference was conducted at constant amperage of 1.2 mA and at up to 25 V of voltage. The blotted membranes were then blocked with 2% bovine serum albumin [(BSA), Santa Cruz Biotechnology] in Tween-Tris buffer saline (TTBS) for 30 min with gentle agitation, and incubated overnight at 4° C. with corresponding primary antibody in TTBS. After twice washing with TTBS, membranes were incubated for 1-2 h at room temperature with suitable conjugated-HRP secondary antibody, and subjected to chemiluminescence detection using Western Blotting Luminol Reagent (Santa Cruz Biotechnology). […]
The antiproliferative effect of cannabinoids is mediated by apoptotic mechanisms. […] Next, we evaluated Casp-3 activation using an antibody that recognizes the active forms of Casp-3, this is, the 17 kDa- and 12 kDa-cleaved forms. […]
For orientation: In western blotting, separated proteins are transferred to a membrane and probed.

In experiment [2] the test system is U266 cells. Briefly: SPT expression, ceramide staining and SPT inhibition in U266 cells. Format: cell-based, human. As for the experimental part:
Except if otherwise indicated, for the viability assays primary cells were incubated 18 hours, with vehicle (with <0.15% DMSO) or cannabinoid. Meanwhile, the time course assays cells were performed at 0, 2, 6, 18 and 24 h. For the analysis of SPT activity, cells were co-incubated for the first 6 hours with the SPT inhibitor, myriocin, and the cannabinoid, WIN-55 or JWH-133.
Samples (15-25 ug/lane) were subjected to SDS/PAGE in pre-cast polyacrylamide gels AnykD (Bio-Rad Laboratories, Hercules, CA, USA) under reducing and denaturing conditions. Electrophoretic run was performed at a constant current of 15 mA per gel in a Mini-Protean® Tetra Cell (Bio-Rad Laboratories). Once proteins were separated by electrophoresis, were transferred onto PVDF membranes using Trans-Blot® Turbo™ System (Bio-Rad Laboratories). Electrotransference was conducted at constant amperage of 1.2 mA and at up to 25 V of voltage. The blotted membranes were then blocked with 2% bovine serum albumin [(BSA), Santa Cruz Biotechnology] in Tween-Tris buffer saline (TTBS) for 30 min with gentle agitation, and incubated overnight at 4° C. with corresponding primary antibody in TTBS. After twice washing with TTBS, membranes were incubated for 1-2 h at room temperature with suitable conjugated-HRP secondary antibody, and subjected to chemiluminescence detection using Western Blotting Luminol Reagent (Santa Cruz Biotechnology). Loading controls were carried out with an anti-beta-actin and anti-beta-tubulin antibodies (Sigma-Aldrich). Blots were captured using a digital imaging system ImageQuant LAS 4000 (Amersham GE Healthcare) and transferred to a digital image processing software to analyze (Adobe Photoshop CS2, version 9.0., Adobe Systems Inc., San Jose, Calif.).
After cannabinoids and/or antagonists or SPT inhibitor treatment, primary cells and cell lines were washed with PBS, collected and placed on slides (Menzel-Glaser, Thermo Fisher Scientific). Cells were fixed in cold 4% paraformaldehyde for 10 min, treated with sodium borohydride and, permeabilized in 0.02% Triton X-100 in PBS with 10% normal donkey serum for blocking. Then, cells were incubated with the anti-CB1 or anti-CB2 receptor antibodies, anti-active-caspase3, anti-ceramide in blocking buffer overnight at 4° C. in a humid chamber (Simport, Beloeil, QC, Canada). After washing with PBS, samples were further incubated for 90 min with Alexa 647- or Alexa 488—conjugated donkey secondary antibody. After twice washing, first with PBS and then with 50 mM Tris-HCl (pH 7.4), and were dipped in a solution of Sudan Black B (Sigma-Aldrich) in 70% methanol for 5 min. After immunocytochemistry, slides were mounted using Fluoromount Aqueous Mounting Medium (Sigma-Aldrich). Preparations were examined with an Olympus BX-61 microscope (Olympus, Hamburg, Germany) equipped with appropriate filters: FITC/Cy2 (green fluorophores) 460-490 nm bandpass excitation filter and 510-550 nm bandpass emission filter; rhodamine/Cy3 (red fluorophores) 541-551 nm excitation and 572-607 nm emission; and Cy5 (deep red fluorophore) 615-635 nm excitation and 655 nm longpass emission. Digital images were acquired with CellSens Dimension Software (Olympus) and contrasted with Photoshop CS2 Software (Adobe Systems Inc). […]
De novo synthesis of ceramides contribute to the apoptotic process triggered by cannabinoids. […] To this end, we analyzed the expression of serine palmitoyltransferase (SPT), the enzyme that catalyses the rate-limiting step of ceramide synthesis de novo. […]

Turning to `CS(=O)(=O)O.Cc1c(C(=O)c2cccc3ccccc23)c2cccc3c2n1[C@H](CN1CCOCC1)CO3` [WIN-55, (R)-(+)-[2,3-dihydro-5-methyl-3-(4-morpholinylmethyl)-pyrrolo-[1,2,3]-1,4-benzoxazin-6-yl]-1-naphthalenylmethanone mesylate], the “time after exposure at which the 89 kDa PARP fragment became detectable” value with U266 cells [1] (U266) is recorded as 2 h. Further, the “expression of the two active-cleaved forms of Casp-3 (17 kDa and 12 kDa)” value in the experiment with U266 cells [1] (U266, time course) was “increased over time”. In addition, in the experiment on U266 cells [1] (U266, time course 0-24 h), the “89 kDa fragment of PARP” value was “increase” and the “full-length PARP” value is given as “decrease”. In the experiment on U266 cells [2] (U266), the “SPT, 2 h after exposure” value is listed as “moderate increase” and the “time at which SPT reached the maximal level” value is on record as 18 h. Further, the “ceramide by immunohistochemistry, compared to untreated cells” value in the experiment with U266 cells [2] (U266, 50 uM, 18 hours) was “remarkable increase”. For the same compound, in the experiment with U266 cells [2] (U266, WIN-55 50 uM), the “SPT expression level in myelomatous cells” value is listed as “enhanced”.
